We go through 54 molecules from BindingDB's records for doi:10.1021/acs.jmedchem.6b01196 (National Institute of Biological Sciences, 2017).

The EC50 is the concentration that produces a half-maximal response.

Structures are written as SMILES.

One experiment is described as follows: Inhibition of RIP1 in mouse L929 cells assessed as reduction in TNFalpha/z-VAD-FMK-induced necrosis after 6 hrs by Cell Titer-Glo luminescent cell viability assay.
For the molecule `CCC(C)(C)C(=O)N(O)Cc1ccccc1`, the EC50 was found to be 27 nM.

A short description of the next experiment: Inhibition of RIP1 in human HT-29 cells assessed as reduction in TNFalpha/z-VAD-FMK-induced necrosis after 24 hrs by Cell Titer-Glo luminescent cell viability assay. For orientation: ATP-based viability assays read luminescence as a measure of living cells.
With `CCC(C)(C)C(=O)N(O)Cc1cc(F)c(F)c(F)c1`, the EC50 came out at 49 nM. For the molecule `CCC(C)(C)C(=O)N(O)Cc1ccc(F)c(F)c1F`, the EC50 is 262 nM. Same read-out and setting: in the case of `CCC(C)(C)C(=O)N(O)Cc1ccc(F)cc1F` it was 198 nM. Turning to `CCC(C)(C)C(=O)N(O)Cc1ccc(F)cc1`, the EC50 stood at 64 nM.

As for `CCC(C)(C)C(=O)N(O)Cc1ccccc1`, the EC50 is 28 nM. As for `CCC(C)(C)C(=O)NC1(c2ccccc2)CC1`, the EC50 was above 5000 nM. As to `CCC(C)(C)C(=O)N(C)C(CO)c1ccccc1` (stereo not given), the EC50 is above 10000 nM. Still for that read-out and setting: next, `CCC(C)(C)C(=O)NC(CO)c1ccccc1` (stereo not given): 1080 nM; `CCC(C)(C)C(=O)N(C)C(C)c1ccccc1` (stereo not given): above 10000 nM.

Turning to `CCC(C)(C)C(=O)NC(C)c1ccccc1` (stereo not given), the EC50 is above 10000 nM.

Consider `CC1CCCCN1C(=O)N(C)Cc1cc(F)cc(F)c1F` (stereo not given), for which the EC50 is above 3000 nM.

Take `CC(C)N(C(=O)N(C)Cc1cc(F)cc(F)c1F)C(C)C`: the EC50 is above 3000 nM. Still for that read-out and setting: in the case of `CC(C)N(C)C(=O)N(C)Cc1cc(F)cc(F)c1F` it was above 3000 nM; in that of `CN(Cc1cc(F)cc(F)c1F)C(=O)C1(C)CCCCC1`, 490 nM; in that of `CN(Cc1cc(F)cc(F)c1F)C(=O)C1(C(F)(F)F)CCCC1`, 1230 nM.

For `CN(Cc1cc(F)cc(F)c1F)C(=O)C1(C(F)(F)F)CCC1`, the EC50 stood at 656 nM. On to `CN(Cc1cc(F)cc(F)c1F)C(=O)C1CCC1`, for which the EC50 stood at 8240 nM.

`CN(Cc1cc(F)cc(F)c1F)C(=O)C1(C)CC1`: the EC50 is above 10000 nM. Still for that read-out and setting: in the case of `CN(Cc1cc(F)cc(F)c1F)C(=O)C(C)(C)CO` it was above 3000 nM; in that of `COC(C)(C)C(=O)N(C)Cc1cc(F)cc(F)c1F`, above 10000 nM; in that of `CN(Cc1cc(F)cc(F)c1F)C(=O)C(C)(C)C`, 98 nM. With `CCC(C)(C)C(=O)N(C)Cc1ccn(C)n1`, the EC50 is above 10000 nM. With `CCC(C)(C)C(=O)N(C)Cc1cnc(C)s1`, the EC50 is above 10000 nM. Consider `CCC(C)(C)C(=O)N(C)Cc1ccco1`, for which the EC50 was determined as 628 nM. As for `CCC(C)(C)C(=O)N(C)Cc1ccc(C)s1`, the EC50 came out at 378 nM.

For the molecule `CCC(C)(C)C(=O)N(C)Cc1sccc1C`, the EC50 is 2530 nM. On the same count and under the same terms, in the case of `CCC(C)(C)C(=O)N(C)Cc1cccs1` it was 221 nM. For the molecule `CCC(C)(C)C(=O)N(C)Cc1cccnc1`, the EC50 was determined as 1740 nM. With `CCC(C)(C)C(=O)N(C)Cc1ccncc1`, the EC50 is above 10000 nM.

For the molecule `CCC(C)(C)C(=O)N(C)Cc1c(F)cc(F)cc1F`, the EC50 was found to be 1250 nM. For `CCC(C)(C)C(=O)N(C)Cc1cc(F)ccc1F`, the EC50 stood at 36 nM. The same measure, in the same setting: next, `CCC(C)(C)C(=O)N(C)Cc1ccc(F)cc1F`: 627 nM; `CCC(C)(C)C(=O)N(C)Cc1ccc(F)cc1`: 815 nM; `CCC(C)(C)C(=O)N(C)Cc1cccc(O)c1`: above 3000 nM. On the same count and under the same terms, in the case of `CCC(C)(C)C(=O)N(C)Cc1cccc(Br)c1` it was 1230 nM; in that of `CCC(C)(C)C(=O)N(C)Cc1cccc(F)c1`, 72 nM; in that of `CCC(C)(C)C(=O)N(C)Cc1ccccc1Cl`, above 10000 nM. On to `CCN(Cc1ccccc1F)C(=O)C(C)(C)CC`, for which the EC50 was above 10000 nM. The same measure, in the same setting: in the case of `CCC(C)(C)C(=O)N(C)Cc1ccccc1` it was 457 nM; in that of `CCC(C)(C)C(=O)NCc1cccc(Br)c1`, above 10000 nM. On the same count and under the same terms, in the case of `CCC(C)(C)C(=O)NCc1ccccc1F` it was 898 nM.

Consider `CCC(C)(C)C(=O)NCc1ccccc1`, for which the EC50 amounted to 4100 nM. Same read-out and setting: in the case of `CCC(C)(C)C(=O)N(O)Cc1cc(F)cc(F)c1F` it was 74 nM; in that of `CCC(C)(C)C(=O)N(O)Cc1ccc(F)c(F)c1`, 56 nM; in that of `CCC(C)(C)C(=O)N(C)C(C)(C)c1ccccc1`, above 10000 nM. Still for that read-out and setting: next, `CCC(C)(C)C(=O)NC(C)(C)c1ccccc1`: above 10000 nM. Still for that read-out and setting: next, `CC1CCCC(C)N1C(=O)N(C)Cc1cc(F)cc(F)c1F` (stereo not given): 1530 nM. As to `CCC(C)(C)C(=O)N(C)Cc1cc(C)c(C)s1`, the EC50 turned out to be 1310 nM.

Test in a further experiment: as above
The source holds these as a separate data set.
Regarding `CCC(C)(C)C(=O)N(C)Cc1ccccc1F`, the EC50 worked out at 125 nM. On to `CCC(C)(C)C(=O)N(C)Cc1cc(F)cc(F)c1F`, for which the EC50 came out at 12 nM. On the same count and under the same terms, next, `CCC(C)(C)C(=O)N(C)Cc1cccc(Cl)c1`: 628 nM; `CCC(C)(C)C(=O)N(C)Cc1cccc(F)c1F`: 58 nM; `CCC(C)(C)C(=O)NCc1ccccc1Br`: 8560 nM. For the molecule `CCC(C)(C)C(=O)N(C)Cc1ccncc1F`, the EC50 was above 10000 nM.
